# According to patent US20100113436A1, “DISPIRO TETRAOXANE COMPOUNDS AND THEIR USE IN THE TREATMENT OF MALARIA AND/OR CANCER” (priority 2006, published 2010):
# Where two headings read alike, the source gives them in different places.
# Legend:
# [1] = test system: 3D7 strain of Plasmodium falciparum; test: In vitro antimalarial activity, 48-h [3H]-hypoxanthine incorporation assay; assay type: cell-based
# Method: The 3D7 strain of Plasmodium falciparum was used in this study. This strain is known to be […] Parasites were maintained in continuous culture using the method of Jensen and Trager^4. […] Stock drug solutions were prepared in 100% dimethylsulphoxide (DMSO) and diluted to the appropriate concentration using complete medium. Assays were performed in sterile 96-well microlitre plates, each plate contained 200 μl of parasite culture (2% parasitemia, 0.5% haematocrit) with or without 10 μl drug dilutions. Each drug was tested in triplicate and parasite growth compared to control wells (which constituted 100% parasite growth). […] IC50 values were calculated by interpolation of the probit transformation of the log dose-response curve.
# [2] = Timed iron degradation stability, FeBr2 in THF; assay type: physicochemical; conditions: ferrous bromide/THF
# Description: The resulting residue was purified by flash column chromatography and the % recovery of starting endoperoxide calculated (Table 15).
# [3] = Stability to other iron salts (FeSO4•7H2O, FeCl2•4H2O); assay type: physicochemical; conditions: further iron salts
# [4] = test system: Plasmodium falciparum GC03; test: In vitro analysis versus strains of Plasmodium falciparum: GC03; assay type: cell-based; conditions: GC03 strain, read-out: IC50
# P. berghei ANKA [5] = test: In vivo dose response screening against P. berghei ANKA; conditions: P. berghei ANKA infected mice; Table 9; sigmoidal curve calculation
# P. berghei ANKA [6] = test: as above; set-up: species or system mice; conditions: Plasmodium berghei; P. berghei ANKA infected mice; Table 9
# Method: Compound 29c, 29h and 291 were then subjected to dose response experiment against the P. berghei ANKA and the results are summarized in Table 7 below.
# [7] = test system: Plasmodium falciparum DD2; test: In vitro analysis versus strains of Plasmodium falciparum: DD2; assay type: cell-based; conditions: DD2 strain, read-out: IC50
# [8] = test system: Plasmodium falciparum V1S; test: microbe, parasite or virus in culture; assay type: cell-based
# Plasmodium falciparum K1 = test: In vitro analysis versus strains of Plasmodium falciparum: K1; assay type: cell-based; conditions: K1 strain
# [9] = test system: Plasmodium falciparum PH3; test: In vitro analysis versus strains of Plasmodium falciparum: PH3; assay type: cell-based; conditions: PH3 strain, read-out: IC50
# [10] = test system: Salmonella typhimurium TA1535/pSK1002; test: Salmonella typhimurium SOS/umu genotoxicity assay
# Description: (§1) This assay is based on the ability of DNA damaging agents to induce the expression of the umu operon. The Salmonella strains have a plasmid pSK1002 which carries an umuC-lacZ fused gene that produces a hybrid protein with β-galactosidase activity and whose expression is controlled by the umu regulatory region.
# [11] = test system: Salmonella typhimurium NM2009; test: Salmonella typhimurium SOS/umu genotoxicity assay
# Description: as §1
# [12] = test system: Plasmodium falciparum HB3; test: In vitro analysis versus strains of Plasmodium falciparum: HB3; assay type: cell-based; conditions: HB3 strain, read-out: IC50
# [13] = test system: Plasmodium falciparum TM4; test: In vitro analysis versus strains of Plasmodium falciparum: TM4; assay type: cell-based; conditions: TM4 strain, read-out: IC50
# [14] = test system: MRC-5 Embryonal lung, diploid; test: Cellular cytotoxicity screen, Resazurin reduction; assay type: cell-based, Human
# Description: (§2) Values represent Tox 50 in μM. Cytotoxicity measured by Resazurin reduction.
# (§3) Single full dose response curves generated using 10 independent drug concentrations. The 100 therapeutic index (TI) is the ration of the TOX 50 to the IC50 for the specific compound against the 3D7 P. falciparum isolate. The primary hepatocytes have demonstrable drug metabolising activity. The tetraoxane derivatives are remarkably non-toxic in these screens with in vitro TIs of between 5000 to 17000!.
# [15] = test system: HepG2 Human hepatocyte carcinoma; test: Cellular cytotoxicity screen, Resazurin reduction; assay type: cell-based; conditions: Hep2G
# Description: as §2, §3
# [16] = test system: L6 Sketal muscle myoblast; test: Cellular cytotoxicity screen, Resazurin reduction; assay type: cell-based, rat
# Description: as §2, §3
# [17] = test system: H9c2(2-1) Myocardium, heart; test: Cellular cytotoxicity screen, Resazurin reduction; assay type: cell-based, rat; conditions: H9c(2-1)
# Description: as §2, §3
# Vero Kidney = test: Cellular cytotoxicity screen, Resazurin reduction; assay type: cell-based, African green monkey, Cercopithecus aethiops
# Description: as §2, §3
# [18] = ratio TOX 50 to IC50 against 3D7 P. falciparum
smiles,measurement,setting,value
O=S(=O)(c1ccccc1)N1CCC2(CC1)OOC1(OO2)C2CC3CC(C2)CC1C3 [Tetraoxane 39f],IC50,"[1]; 3D7, sulfonamide dispiro 1,2,4,5-tetraoxanes, Table 8, read-out: Mean IC50",8.1 nM
same,degradation,[2]; after 4 h,10%
same,turnover,[2]; after 48 h,31%
same,degradation by iron salts known to degrade artemisinin and arteflene,[3],ineffective at degrading
CCS(=O)(=O)N1CCC2(CC1)OOC1(OO2)C2CC3CC(C2)CC1C3 [Tetraoxane 39b],IC50,[4],3 nM
same,IC50,"[1]; 3D7, read-out: Mean IC50",5.55 nM
same,ED90,P. berghei ANKA [5],35.48 mg/kg
same,ED50,P. berghei ANKA [6],6.61 mg/kg
same,IC50,[7],3 nM
same,IC50,[8],2.7 nM
same,IC50,Plasmodium falciparum K1,3 nM
same,IC50,[9],1.9 nM
same,MCE TA1535 (Maximum Co w/o effects on bacteria growth or β-galactosidase production),[10]; Salmonella typhimurium,50 µM
same,genotoxicity result in SOS/umu assay,"[10]; both strains TA1535/pSK1002 and NM2009, highest concentration tested 50 μM, absence and presence of S-9 mix",Negative
same,Max. Fold Increase,[10]; −S9,1.03 ± 0.07 fold
same,Potential genotox,[10]; −S9,NEG
same,MCE NM2009 (Maximum Co w/o effects on bacteria growth or beta-galactosidase production),[11]; Salmonella typhimurium,50 µM
same,Max. Fold Increase,[11]; −S9,1.07 ± 0.03 fold
same,Potential genotox,[11]; −S9,NEG
same,IC50,[12],3.8 nM
same,IC50,[13],2.4 nM
same,solubility,physchem,50 µM
same,Tox 50,[14],>50 µM
same,Theraputic Index (TI),[14]; [18],>9090
same,Tox 50,[15],>50 µM
same,Theraputic Index (TI),[15]; [18],>9090
same,Tox 50,[16],31 µM
same,Theraputic Index (TI),[16]; [18],5636
same,Tox 50,[17],>50 µM
same,Theraputic Index (TI),[17]; [18],>9090
same,Tox 50,Vero Kidney,>50 µM
same,Theraputic Index (TI),Vero Kidney; [18],>9090
